In article PMC7278553, “Blocking interaction between SHP2 and PD‐1 denotes a novel opportunity for developing PD‐1 inhibitors” (EMBO Molecular Medicine, 2020):

Target: T1, SHP2 (Homo sapiens, UniProt Q06124)
T1 construct: gene PTPN11; recombinant hSHP2-FC (R&D Systems, 1894-SH-100)
T1 sequence (Q06124 2-593): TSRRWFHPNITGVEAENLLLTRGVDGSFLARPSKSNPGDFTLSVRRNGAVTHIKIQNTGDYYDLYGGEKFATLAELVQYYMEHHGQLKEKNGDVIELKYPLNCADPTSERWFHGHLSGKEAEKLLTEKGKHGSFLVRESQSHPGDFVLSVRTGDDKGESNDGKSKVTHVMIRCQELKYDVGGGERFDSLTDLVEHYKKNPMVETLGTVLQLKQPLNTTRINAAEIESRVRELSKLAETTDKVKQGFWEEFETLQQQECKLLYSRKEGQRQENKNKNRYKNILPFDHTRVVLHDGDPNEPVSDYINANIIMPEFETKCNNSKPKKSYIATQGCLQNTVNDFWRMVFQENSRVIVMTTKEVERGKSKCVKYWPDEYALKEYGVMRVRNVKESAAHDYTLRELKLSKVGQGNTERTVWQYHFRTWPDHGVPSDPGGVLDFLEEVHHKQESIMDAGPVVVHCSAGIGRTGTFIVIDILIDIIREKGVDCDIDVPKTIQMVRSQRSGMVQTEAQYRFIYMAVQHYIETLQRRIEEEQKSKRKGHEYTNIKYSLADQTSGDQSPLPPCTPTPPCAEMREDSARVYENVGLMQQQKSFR
T1 sequence (Q15116 235-264 partner): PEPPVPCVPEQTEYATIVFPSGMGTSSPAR
Test: ELISA: MB blocks binding of purified recombinant SHP2-Fc to coated phospho-ITSM PD-1 peptide; supported by co-IP and split-luciferase complementation in cells
Assay type: biochemical

## CN(C)c1ccc2nc3ccc(N(C)C)cc3[s+]c2c1 [MB, 3,7‐bis(dimethylamino)‐5‐phenothiazinium chloride]
  ELISA: MB blocks binding of purified recombinant SHP2-Fc to coated phospho-ITSM: MB dose‐dependently blocked the binding of SHP2 protein to coated Pep‐ITSM‐p248Y, unequivocally showing that MB directly blocked interaction
